Laboratory results taken from ChEMBL document CHEMBL1201862, “PubChem BioAssay data set” (2004).
Active and inactive are the calls of the source.

How the values were obtained:
[1] = target: FAD-linked sulfhydryl oxidase ALR (Homo sapiens, UniProt P55789); assay: ALR-catalysed DTT oxidation blockers – biochemical, H2O2 detection, luminescence, cherry-pick, dose response (AID 493248)
BJ [2] = assay: BJ-TERT fibroblast viability loss – cell-based, RAS-independent, luminescence, dose response (AID 1933); format: functional; details: Homo sapiens
BJ [3] = assay: cells; format: functional, cell-based; details: Homo sapiens
BJ [4] = assay: BJ-TERT-LT-ST fibroblast viability loss – cell-based, RAS-independent, luminescence, dose response (AID 1935); format: functional; details: Homo sapiens;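 further: BJ fibroblasts immortalized with TERT plus LT and ST oncogenes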
[5] = DRD fibroblast viability loss – cell-based, non-viral oncogenic, luminescence, dose response (AID 1934); format: functional; details: Homo sapiens
SN12K1 = assay: cells; format: functional; details: Homo sapiens
P388/ADR = assay: cells; format: functional; details: Mus musculus
P388 = assay: cells; format: functional; details: Mus musculus
[6] = intracellular Trypanosoma cruzi inhibitors in host cells – cell-based, plate reader, cherry-pick samples, set 3, dose response (AID 651818); format: functional;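 further: compounds incubated with infected cells for about four days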
[7] = non-specific 3'UTR reporter inhibition in Clone20-Shn3RL – cell-based, Renilla luciferase, cherry-picked, counter-screen for Shn3 inhibitor project, dose response (AID 624133); format: functional
[8] = reduction of Shn3 3'UTR-driven luciferase in osteoblasts – cell-based, Clone20 osteoblasts, firefly luciferase, cherry-picked, dose response (AID 624132); format: functional;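 further: firefly luciferase luminescence from reporter carrying the Shn3 3'UTR in osteoblasts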
[9] = loss of viability in HepG2 cells – cell-based, CellTiter-Glo, cherry-picked, cytotoxicity control for Shn3 inhibitor project, dose response (AID 624134); format: functional
[10] = luciferase reporter signal suppression in cells – H4 neuroglioma cells, luminescence, dose response (AID 1990); format: functional, cell-based
[11] = alpha-synuclein stem-loop luciferase translation blockers – H4 neuroglioma cells, luminescence, confirmation (AID 1988); format: functional, cell-based
[12] = target: T1, Heat shock factor protein 1 (Mus musculus, UniProt P38532); assay: enhancement of HSF1-driven luciferase signal – cell-based, NIH3T3, luminescence, dose retest, confirmation (AID 435004); format: functional;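 further: stress induced by proteasome inhibitor MG132 added 30 min after compound; luciferase reporter driven by HSF1 response element in NIH3T3 cells; actives raise luminescence as potentiators of the MG132 stress response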
T1 sequence (P38532 whole entry): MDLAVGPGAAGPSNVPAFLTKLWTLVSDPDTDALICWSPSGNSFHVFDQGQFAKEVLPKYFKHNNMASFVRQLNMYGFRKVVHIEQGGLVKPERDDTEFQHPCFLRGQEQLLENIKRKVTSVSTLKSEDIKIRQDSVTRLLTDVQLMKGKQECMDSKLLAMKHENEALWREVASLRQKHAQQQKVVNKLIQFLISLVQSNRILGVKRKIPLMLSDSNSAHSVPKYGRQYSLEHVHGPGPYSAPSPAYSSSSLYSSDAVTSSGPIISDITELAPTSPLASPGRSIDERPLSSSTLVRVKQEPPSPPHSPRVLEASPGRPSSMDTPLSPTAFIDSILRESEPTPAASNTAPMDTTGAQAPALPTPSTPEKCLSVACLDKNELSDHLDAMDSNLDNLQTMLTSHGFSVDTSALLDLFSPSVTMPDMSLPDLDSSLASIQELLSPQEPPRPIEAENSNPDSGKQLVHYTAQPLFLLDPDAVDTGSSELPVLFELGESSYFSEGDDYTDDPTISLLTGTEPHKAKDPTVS

Protein RecA = target: T2, Protein RecA (Mycobacterium tuberculosis, UniProt P9WHJ3); assay: Fluorescence Cell-Free Homogeneous Dose Retest to Identify Inhibitors of RecA-Intein Splicing Activity. [Related pubchem assays (depositor defined):AID2097, AID2223, AID489010, AID492950]; format: functional
T2 sequence (P9WHJ3 whole entry): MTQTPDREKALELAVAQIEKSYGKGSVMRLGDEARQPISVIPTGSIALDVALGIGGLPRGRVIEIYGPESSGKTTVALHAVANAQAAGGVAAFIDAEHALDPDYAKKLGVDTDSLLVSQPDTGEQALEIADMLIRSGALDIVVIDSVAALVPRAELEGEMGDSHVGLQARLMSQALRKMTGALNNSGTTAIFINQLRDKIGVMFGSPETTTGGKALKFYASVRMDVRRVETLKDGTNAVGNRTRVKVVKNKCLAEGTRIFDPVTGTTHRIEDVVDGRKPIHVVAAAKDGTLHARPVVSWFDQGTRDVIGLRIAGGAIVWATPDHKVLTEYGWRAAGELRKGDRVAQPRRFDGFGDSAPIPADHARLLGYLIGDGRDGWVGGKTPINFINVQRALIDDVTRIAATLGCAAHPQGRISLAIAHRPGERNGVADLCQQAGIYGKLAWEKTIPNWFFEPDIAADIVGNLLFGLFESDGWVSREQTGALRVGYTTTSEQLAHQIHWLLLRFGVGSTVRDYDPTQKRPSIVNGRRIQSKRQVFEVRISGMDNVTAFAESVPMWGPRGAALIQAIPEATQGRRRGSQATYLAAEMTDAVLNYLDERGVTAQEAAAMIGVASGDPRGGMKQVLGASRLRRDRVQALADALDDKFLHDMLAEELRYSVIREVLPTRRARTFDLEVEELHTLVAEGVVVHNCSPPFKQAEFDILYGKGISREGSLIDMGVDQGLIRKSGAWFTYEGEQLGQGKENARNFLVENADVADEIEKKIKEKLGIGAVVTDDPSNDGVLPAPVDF

[13] = target: T3, Replicative DNA helicase DnaB (Mycobacterium tuberculosis, UniProt P9WMR3); assay: DnaB intein splicing inhibitors, dose response, biochemical, cell-free fluorescence (AID 449749); format: functional
T3 sequence (P9WMR3 whole entry): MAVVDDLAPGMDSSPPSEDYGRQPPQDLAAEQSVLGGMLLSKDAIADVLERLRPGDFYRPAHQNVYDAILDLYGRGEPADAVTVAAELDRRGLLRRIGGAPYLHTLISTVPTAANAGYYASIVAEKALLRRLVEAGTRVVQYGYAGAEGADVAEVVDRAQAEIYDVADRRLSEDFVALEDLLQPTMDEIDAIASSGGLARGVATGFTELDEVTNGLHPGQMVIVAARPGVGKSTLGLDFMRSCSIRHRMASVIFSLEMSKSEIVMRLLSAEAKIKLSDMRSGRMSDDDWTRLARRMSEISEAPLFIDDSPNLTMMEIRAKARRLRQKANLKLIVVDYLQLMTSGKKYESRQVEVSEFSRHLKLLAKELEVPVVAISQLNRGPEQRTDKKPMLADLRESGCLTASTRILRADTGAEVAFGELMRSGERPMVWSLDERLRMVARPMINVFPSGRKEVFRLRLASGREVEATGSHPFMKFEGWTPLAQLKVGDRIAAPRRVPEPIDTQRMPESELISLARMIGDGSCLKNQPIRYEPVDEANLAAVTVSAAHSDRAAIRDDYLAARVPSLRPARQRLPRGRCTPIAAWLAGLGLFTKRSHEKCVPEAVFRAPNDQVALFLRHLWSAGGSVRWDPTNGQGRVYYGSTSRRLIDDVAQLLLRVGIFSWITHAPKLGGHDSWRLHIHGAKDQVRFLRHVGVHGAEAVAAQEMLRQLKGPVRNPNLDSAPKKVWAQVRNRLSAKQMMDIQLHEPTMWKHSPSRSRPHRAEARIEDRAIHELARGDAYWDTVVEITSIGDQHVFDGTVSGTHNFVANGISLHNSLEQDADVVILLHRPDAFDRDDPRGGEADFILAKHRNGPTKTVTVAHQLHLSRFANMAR

Sequence of FAD-linked sulfhydryl oxidase ALR (P55789 whole entry): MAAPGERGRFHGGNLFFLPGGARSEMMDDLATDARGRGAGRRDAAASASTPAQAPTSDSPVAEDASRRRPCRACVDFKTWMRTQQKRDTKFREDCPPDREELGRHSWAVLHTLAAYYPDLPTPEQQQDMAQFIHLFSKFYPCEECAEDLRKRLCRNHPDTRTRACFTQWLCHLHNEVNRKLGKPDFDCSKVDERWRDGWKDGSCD

COc1cccc(CNn2cnnc2)c1O
AC50 [1]: 2.23 µM (active)

O=C(Nc1ccc(Cl)cn1)c1cccc(F)c1
EC50 (BJ [2]): 18.4 µM (active)
EC50 (BJ [3]): 35.6 µM (active)
EC50 (BJ [4]): > 150 µM (inconclusive)
EC50 [5]: 18.4 µM (active)

O=C(O)CCC(NC(=O)c1ccc(Nc2cnc3cc(C(F)(F)F)ccc3n2)cc1)C(=O)O (stereo unspecified)
GI50 (SN12K1): > 100 µM (inactive)
GI50 (P388/ADR): > 100 µM (inactive)
GI50 (P388): > 100 µM (inactive)

O=[N+]([O-])c1ccc(Nc2cccc3c4cc[nH]c(-c5ccccc5)c-4nc23)c([N+](=O)[O-])c1
GI50 (SN12K1): 10 µM (inactive)
GI50 (P388/ADR): 14.3 µM (inactive)
GI50 (P388): 20.1 µM (inactive)

O=S1(=O)N2CN3CN(C2)CN1C3
GI50 (SN12K1): > 100 µM (inactive)
GI50 (P388/ADR): 21.2 µM (inactive)
GI50 (P388): 18.5 µM (inactive)

C[C@H]1CN([C@@H](C)CO)C(=O)c2cccc(NC(=O)NC3CCCCC3)c2O[C@H]1CN(C)Cc1ccc(C(=O)Nc2ccccc2N)cc1
AC50 [6]: 2.74 µM (active)

O=C(Nc1ccc(F)c(F)c1)c1ccc(F)c(S(=O)(=O)N2CCC3(CC2)OCCO3)c1
AC50 [7]: 11.2 µM (active)
AC50 [8]: 12.2 µM (active)
AC50 [9]: 42.3 µM (active)

C=CCNc1nc(N2CCCCC2)c(C#N)c2c1CN(Cc1ccccc1)CC2
AC50 [7]: 28.9 µM (active)
AC50 [8]: 16.8 µM (active)
AC50 [9]: > 70 µM (inactive)

CC12CCC3C(CCC4(O)C=CCCC34C=O)C1(O)CC(O)C2c1ccc(=O)oc1 (stereo unspecified)
GI50 (SN12K1): 0.0624 µM (active)
GI50 (P388/ADR): > 500 µM (inactive)
GI50 (P388): 336 µM (inactive)

COc1ccc(C)cc1NC(=O)CNC(c1ccccc1)c1ccc(C)cc1 (stereo unspecified)
EC50 (BJ [2]): 2.53 µM (active)
EC50 (BJ [3]): 50.2 µM (inconclusive)
EC50 (BJ [4]): 2.79 µM (active)
EC50 [10]: 10.3 µM (active)
EC50 [11]: 0.205 µM (active)
EC50 [5]: 1.39 µM (active)

CCCCNC1C(CC)C(CCC)C(C#N)(C#N)C1(C#N)C#N (stereo unspecified)
EC50 [12]: 11.1 µM (active)
EC50 (Protein RecA): 2.36 µM (active)
AC50 [13]: > 380 µM (inactive)

CN(C)CCNc1c([N+](=O)[O-])cc2c3c(cccc13)C(=O)N(CCN(C)C)C2=O
GI50 (SN12K1): 7.83 µM (inactive)
GI50 (P388/ADR): 1.87 µM (inactive)
GI50 (P388): 0.925 µM (active)

C=CCNC(=O)C(C)C1CCC2(C)C=CC(=O)C(C)=C2C1O (stereo unspecified)
GI50 (SN12K1): > 100 µM (inactive)
GI50 (P388/ADR): > 100 µM (inactive)
GI50 (P388): > 100 µM (inactive)

CCOC(=O)C(C)NC(=O)N(C)C12CC3CC(CC(C3)C1)C2 (stereo unspecified)
GI50 (SN12K1): 190 µM (inactive)
GI50 (P388/ADR): 123 µM (inactive)
GI50 (P388): 52.2 µM (inactive)

COc1cc(NC(=O)COc2cccc3c2OC(C)(C)C3)cc(OC)c1OC
AC50 [7]: 3.03 µM (active)
AC50 [8]: 4.38 µM (active)

C=CCNc1nc(N2CCOCC2)c(C#N)c2c1CN(C)CC2
AC50 [7]: 28.2 µM (active)
AC50 [8]: > 70 µM (inactive)
